Data set [1] deals with PANC-1 cells. Conditions: PANC-1, 48 h, MTT.
The subject of another data set is TB33117 cells. The settings on record: TB33117, 48 h, MTT.
Data set [2] deals with MiaPaCa-2 cells. The settings on record: MiaPaCa-2, 48 h, MTT.
Data set [3] has as its system MiaPaCa-2 human pancreatic cancer cells xenograft. Briefly: Subcutaneous MiaPaCa-2 xenograft tumor growth in Scid mice. In kind it is in vivo.
Data set [4] concerns pancreatic cancer (PC) cells. Briefly: MTT proliferation of human and murine pancreatic cancer cells (overall statements, combinations). In kind it is cell-based. Conditions: MiaPaCa-2, PANC-1, TB33117, KPCWT942.
Another data set deals with Skp2. Briefly: Skp2 immunohistochemical staining of xenografted tumors. It counts as in vivo, Scid mice.
For data set [5] the following is noted: in vivo.
In data set [6] the test system is normal pancreatic epithelial cell line (HPDE). It counts as cell-based.
For data set [7] the following is noted: mouse, in vivo.
Data set [8] concerns PANC-1 cells. Briefly: Cell cycle by propidium iodide flow cytometry. Conditions: PANC-1, 0.2 μM, 24 h. In kind it is cell-based, human. On the procedure: (§1) ATO inhibited PC cell growth by stimulation of apoptosis. The effects of PhAs-LHP on cell cycle and cell death were determined by flow cytometry analysis. In MiaPaCa-2 cells, after 48 h treatment, ATO induced about 15% cell death at 0.5 μM while PhAs-LHP (0.05 μM) caused 24% cell death at ten times lower concentrations than ATO (Figure 4A). Likewise, after 24 h treatment, ATO (2 μM) and PhAs-LHP (0.2 μM) induced cell cycle arrest at the G2/M phase in PANC-1 cells (Figure 4B).
Figure 4 PhAs-LHP induced cell death and cell cycle arrest more potently than ATO. MiaPaCa-2 cells were treated with ATO (0.5 μM) or PhAs-LHP (0.05 μM) for 48 h (A). PANC-1 cells were treated with ATO (2 μM) or PhAs-LHP (0.2 μM) for 24 h (B). Both MiaPaCa-2 and PANC-1 cells were then stained with propidium iodide (PI) and subjected to flow cytometry analysis. Numbers indicate the percent of PI-negative cells of a total of 10,000 cells analyzed per condition (A). TEXT PRINTED IN THE PICTURE: (A) ATO: % PI Negative 85.4 (0.5 μM) | (A) PhAs-LHP: % PI Negative 75.9 (0.05 μM) | (B) ATO: %G1 28.9 (2 μM); %S 16.7 (2 μM); %G2 48.9 (2 μM) | (B) PhAs-LHP: %G1 39.3 (0.2 μM); %S 19.8 (0.2 μM); %G2 38.6 (0.2 μM)
Cell death and cell cycle were assayed using propidium iodide (PI) and flow cytometry. Cells were treated with ATO or PhAs-LHP with the concentrations indicated in the text for 48 h for measuring cell death or 24 h for determining cell cycle arrest. All floating and adhering cells were then trypsinized and washed two times with cold phosphate-buffered saline (PBS). For cell death assays, cells were harvested and resuspended in PBS containing 1 μg/mL PI. For cell cycle analysis, cells were harvested and resuspended in PBS containing 0.1% Triton X-100, 50 μg/mL PI, and 10 μg/mL RNaseA (Thermo Scientific, Melbourne, Australia) and then incubated at 37 °C for 15 min. Samples were processed with the FACSymphony A3 flow cytometer (BD Biosciences), and the acquired data were analyzed with the FlowJo software (BD Biosciences, San Jose, CA, USA).
Background: A flow cytometer gives signals particle by particle.

Data set [9] has as its system MiaPaCa-2 cells. Put plainly: Cell death by propidium iodide flow cytometry. The settings on record: MiaPaCa-2, 0.05 μM, 48 h. In kind it is cell-based, human. How it is done:
as §1
Figure 4 PhAs-LHP induced cell death and cell cycle arrest more potently than ATO. MiaPaCa-2 cells were treated with ATO (0.5 μM) or PhAs-LHP (0.05 μM) for 48 h (A). PANC-1 cells were treated with ATO (2 μM) or PhAs-LHP (0.2 μM) for 24 h (B). Both MiaPaCa-2 and PANC-1 cells were then stained with propidium iodide (PI) and subjected to flow cytometry analysis. Numbers indicate the percent of PI-negative cells of a total of 10,000 cells analyzed per condition (A). […]
Cell death and cell cycle were assayed using propidium iodide (PI) and flow cytometry. […] Samples were processed with the FACSymphony A3 flow cytometer (BD Biosciences), and the acquired data were analyzed with the FlowJo software (BD Biosciences, San Jose, CA, USA).

[10] abbreviates: read-out: IC50 inhibition of PC cell proliferation.

As for CAYHRLRRC [LHP, reference compound], the “effect on cell proliferation” value in the data set on PANC-1 cells [1], in the data set with TB33117 cells and with MiaPaCa-2 cells [2] was “did not affect the proliferation” throughout.

In the case of `Nc1ccn([C@@H]2O[C@H](CO)[C@@H](O)C2(F)F)c(=O)n1` [Gem, gemcitabine, reference compound], in data set [3] (50 mg/kg i.p. every 4 days, alone, vs control), the “PC growth (tumor volume, tumor weight)” value was “significantly decreased PC growth”. In data set [4] (24 h pre-incubation with Gem, then 48 h ATO), the “effect of pre-treatment on inhibition of PC cell growth by ATO” value is “enhanced the inhibitory effects of ATO”. Besides, the “levels of Skp2 in tumors” value in the data set on Skp2 (50 mg/kg i.p., vs non-treatment control, IHC) is “reduced”.

Take `CC(=O)N[C@H]1CS[As](c2ccccc2)SC[C@@H](C(N)=O)NC(=O)[C@H](CCCNC(=N)N)NC(=O)[C@H](CCCNC(=N)N)NC(=O)[C@H](CC(C)C)NC(=O)[C@H](CCCNC(=N)N)NC(=O)[C@H](Cc2c[nH]cn2)NC(=O)[C@H](Cc2ccc(O)cc2)NC(=O)[C@H](C)NC1=O` (some centres unmarked) [PhAs-LHP]: the “toxicity (mouse body weight)” value in data set [5] is listed as “No toxicity was observed”. In data set [3] (mouse, in vivo), the “further reduction in tumor volumes and weight on top of Gem” value is “further decreased tumor volumes”; the “relative tumor growth (Day 7 volume = 100%)” value is reported as “significantly slower than of Gem plus PAO”. Moreover, the “pancreatic tumor growth (tumor volume, tumor weight)” value in data set [3] (mouse, in vivo, ip) is on record as “significantly suppressed pancreatic tumor growth”. Moreover, the IC50 in the data set with PANC-1 cells [1] (setting [10]) turned out to be 210 ± 30 nM. For the same compound, in the data set with Skp2 (mouse, in vivo), the “levels of Skp2 in tumors, combination with gemcitabine” value is on record as “did not further reduce the expression of Skp2”. Also, in the data set with Skp2 (mouse, in vivo, ip), the “levels of Skp2 in tumors” value is “reduced”. Further, the “reduction of proliferation of HPDE” value in [6] worked out at 10%. The IC50 in the data set on TB33117 cells (setting [10]) came out at 200 ± 50 nM. The IC50 in the data set with MiaPaCa-2 cells [2] (setting [10]) was determined as 120 ± 100 nM. Besides, the “arsenic (As) in brain, heart, liver and kidney” value in data set [7] is “not detected”. For the same compound, in the data set on PANC-1 cells [8], the “%G1” value is given as 39.3%, the “%G2” value is listed as 38.6% and the “%S” value amounted to 19.8%. Besides, the cell death in the data set with MiaPaCa-2 cells [9] worked out at 24%. For the same compound, the “% PI Negative” value in the data set on MiaPaCa-2 cells [9] (of 10,000 cells) was determined as 75.9%.

Consider `Cc1nc(Nc2[nH]nc3c2CN(C(=O)N[C@H](CN(C)C)c2ccccc2)C3(C)C)c2sccc2n1` [PF-3758309], for which, in data set [4] (24 h pre-incubation with PF-3758309, then 48 h ATO), the “effect of pre-treatment on inhibition of PC cell growth by ATO” value is listed as “enhanced the inhibitory effects of ATO”.

Values taken from PMC11546692 (International Journal of Molecular Sciences, 2024).
